For test [1], the target named is T1, Staphylococcus aureus lipase (SAL) (Staphylococcus aureus, UniProt Q2G155). The test is described as follows: X-ray co-crystal structures. It counts as biochemical.
Test [2] concerns the target T1, Staphylococcus aureus lipase (SAL). Nature of the test: pNPB hydrolysis assay. The test is classed as biochemical.

T1 sequence (Q2G155 297-690): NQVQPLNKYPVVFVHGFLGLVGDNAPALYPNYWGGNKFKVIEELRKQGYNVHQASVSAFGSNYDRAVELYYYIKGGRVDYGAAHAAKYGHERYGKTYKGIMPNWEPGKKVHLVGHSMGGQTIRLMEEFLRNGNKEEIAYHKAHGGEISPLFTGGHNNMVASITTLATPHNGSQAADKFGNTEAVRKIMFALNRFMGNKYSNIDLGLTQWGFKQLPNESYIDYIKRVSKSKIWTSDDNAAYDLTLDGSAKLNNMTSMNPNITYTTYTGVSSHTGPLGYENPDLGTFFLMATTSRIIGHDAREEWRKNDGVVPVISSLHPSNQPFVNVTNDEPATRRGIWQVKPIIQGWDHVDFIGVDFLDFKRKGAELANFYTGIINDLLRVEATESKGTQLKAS

The term IC50 denotes the concentration needed to halve the response being measured. Low readings indicate greater potency, high ones weaker potency. As to `OC1(c2ccc(Cl)c(C(F)(F)F)c2)CCN(CCCC(c2ccc(F)cc2)c2ccc(F)cc2)CC1` [penfluridol, 1-[4,4-bis(4-fluorophenyl)butyl]-4-[4-chloro-3-(trifluoromethyl)phenyl]piperidin-4-ol], the IC50 in test [1] worked out at 7.3 µM.
As for `O=c1[nH]c2ccccc2n1C1CCN(CCCC(c2ccc(F)cc2)c2ccc(F)cc2)CC1` [pimozide, 3-[1-[4,4-bis(4-fluorophenyl)butyl]piperidin-4-yl]-1H-benzimidazol-2-one], the IC50 in test [2] was approximately 48.5 µM.

(Values after PMC11997127 (Scientific Reports, 2025).)
